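1) Cells in 96-well plates. 2) Compound, 48 h, 5 concentrations. 3) Linear interpolation between surrounding doses. 4) Unreached endpoint = highest concentration. The concentration for 50% growth inhibition is given as GI50.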 The source made the active and inactive calls. Rule as the data show it: active = GI50 up to about 1.1 µM and inactive = higher.
Assays:
Experiment in all cases: NCI anticancer screen, dose series, 48 h
[1] = system: 786-0
[2] = system: A498
[3] = system: A549
[4] = system: ACHN
[5] = system: CCRF-CEM
[6] = system: COLO 205
[7] = system: DLD-1
[8] = system: DMS-114
[9] = system: EKVX
[10] = system: HCC 2998
[11] = system: HCT-116
[12] = system: HCT-15
[13] = system: HOP-18
[14] = system: HOP-62
[15] = system: HOP-92
[16] = system: HT-29
[17] = system: IGROV-1
[18] = system: K562
[19] = system: KM-20L2
[20] = system: KM12
[21] = system: LOX IMVI
[22] = system: LXFL 529
[23] = system: M14
[24] = system: M19-MEL
[25] = system: MOLT-4
[26] = system: Malme-3M
[27] = system: NCI-H226
[28] = system: NCI-H23
[29] = system: NCI-H460
[30] = system: NCI-H522
[31] = system: OVCAR-3
[32] = system: OVCAR-4
[33] = system: OVCAR-5
[34] = system: OVCAR-8
[35] = system: RXF 393
[36] = system: SF-268
[37] = system: SF-295
[38] = system: SF-539
[39] = system: SK-MEL-28
[40] = system: SK-MEL-2
[41] = system: SK-MEL-5
[42] = system: SK-OV-3
[43] = system: SN12C
[44] = system: SNB-19
[45] = system: SNB-75
[46] = system: SNB-78
[47] = system: SW-620
[48] = system: TK-10
[49] = system: U-251
[50] = system: UACC-257
[51] = system: UACC-62
[52] = system: UO-31
[53] = system: XF498
[54] = system: CAKI-1
[55] = system: DMS-273
[56] = system: HL-60
[57] = system: SR

Measured: GI50

C=C1CCc2occ(C)c2C2C1C1=C(CC(C)C1=O)C1OC12C (stereo unspecified)
inactive: [1] > 100 µM | [2] > 100 µM | [3] > 100 µM | [4] > 100 µM | [5] > 100 µM | [6] > 100 µM | [7] > 100 µM | [8] 99.1 µM | [9] > 100 µM | [10] > 100 µM | [11] 83 µM | [13] 2.26 µM | [14] > 100 µM | [15] > 100 µM | [16] > 100 µM | [17] > 100 µM | [18] > 100 µM | [19] > 100 µM | [20] > 100 µM | [21] > 100 µM | [22] > 100 µM | [23] > 100 µM | [24] > 100 µM | [25] > 100 µM | [26] > 100 µM | [27] > 100 µM | [28] > 100 µM | [29] > 100 µM | [30] 44.8 µM | [31] > 100 µM | [32] > 100 µM | [33] 21.8 µM | [34] > 100 µM | [35] > 100 µM | [36] > 100 µM | [37] > 100 µM | [38] > 100 µM | [39] > 100 µM | [40] > 100 µM | [41] 52.2 µM | [42] > 100 µM | [43] > 100 µM | [44] 26.5 µM | [45] 34.7 µM | [46] > 100 µM | [47] > 100 µM | [48] > 100 µM | [49] > 100 µM | [50] > 100 µM | [51] 52 µM | [52] 4.03 µM | [53] 91.6 µM
> 100 µM: [12]

C(=N\OCc1ccccc1)/c1ncccc1C1OCCO1
inactive: [1] > 100 µM | [3] > 100 µM | [4] > 100 µM | [54] > 100 µM | [5] > 100 µM | [6] > 100 µM | [7] > 100 µM | [8] > 100 µM | [55] > 100 µM | [9] > 100 µM | [11] > 100 µM | [56] > 100 µM | [13] > 100 µM | [14] > 100 µM | [15] > 100 µM | [16] > 100 µM | [17] > 100 µM | [18] > 100 µM | [19] > 100 µM | [20] > 100 µM | [21] > 100 µM | [22] > 100 µM | [23] > 100 µM | [24] > 100 µM | [25] > 100 µM | [26] > 100 µM | [28] > 100 µM | [29] > 100 µM | [30] > 100 µM | [31] > 100 µM | [32] > 100 µM | [33] > 100 µM | [34] > 100 µM | [35] > 100 µM | [36] > 100 µM | [37] > 100 µM | [38] > 100 µM | [39] > 100 µM | [40] > 100 µM | [41] > 100 µM | [42] > 100 µM | [43] > 100 µM | [44] > 100 µM | [45] > 100 µM | [46] > 100 µM | [57] > 100 µM | [47] > 100 µM | [48] > 100 µM | [49] > 100 µM | [50] > 100 µM | [51] > 100 µM | [52] > 100 µM
> 100 µM: [12]

Reference: ChEMBL document CHEMBL1201862, “PubChem BioAssay data set” (2004)
